Experimental data from patent publication US7666873B2, “N-phenyl-(2R,5S)dimethylpiperazine derivative” (Astellas Pharma Inc., priority 2002, dated 2010).
pIC50: −log10 of the molar value. Structures can show the parent of a compound that is named as a salt. Where two headings read alike, the source gives them in different places.

Legend:
[1] = system: ventral prostate of mature male rat; test: Prostate gland reducing action toward mature male rat; format: in vivo; details: 360 h; oral, once a day for 15 days, male Wistar rat, ventral prostate wet weight, linear regression
Method: 3. Prostate Gland Reducing Action Toward Mature Male Rat
To a male 9-10 weeks old Wistar rat, the compound of the present invention suspended in a 0.5% methylcellulose solution was orally administered once a day continuously for 15 days. After 6 hours from the final administration, the wet weight of its ventral prostate was measured and a prostate gland reducing of the compound of the present invention was investigated.
The prostate gland reducing of the compound of the present invention was calculated according to the following formula using a group to which the compound of the present invention was administered as a test group and a group to which only methylcellulose was administered as a control group. Lessening ratio (%)=100(B−A)/B
A: Wet weight of ventral prostate in test group
B: Wet weight of ventral prostate in control group
From the lessening ratio determined in the above, an ED50 value was calculated by the linear regression method.

human androgen receptor [2] = molecular target: T1, human androgen receptor (Homo sapiens, UniProt P10275); test: Transcription activating action toward human androgen receptor (agonistic action), MMTV luciferase reporter in CHO cells; format: cell-based; details: ratio to transcription activity induced by 1 nM DHT; CHO/MMTV and CHO/SV40 stable transformants
T1 construct: expressed in transfected cells
T1 sequence (P10275 1-920): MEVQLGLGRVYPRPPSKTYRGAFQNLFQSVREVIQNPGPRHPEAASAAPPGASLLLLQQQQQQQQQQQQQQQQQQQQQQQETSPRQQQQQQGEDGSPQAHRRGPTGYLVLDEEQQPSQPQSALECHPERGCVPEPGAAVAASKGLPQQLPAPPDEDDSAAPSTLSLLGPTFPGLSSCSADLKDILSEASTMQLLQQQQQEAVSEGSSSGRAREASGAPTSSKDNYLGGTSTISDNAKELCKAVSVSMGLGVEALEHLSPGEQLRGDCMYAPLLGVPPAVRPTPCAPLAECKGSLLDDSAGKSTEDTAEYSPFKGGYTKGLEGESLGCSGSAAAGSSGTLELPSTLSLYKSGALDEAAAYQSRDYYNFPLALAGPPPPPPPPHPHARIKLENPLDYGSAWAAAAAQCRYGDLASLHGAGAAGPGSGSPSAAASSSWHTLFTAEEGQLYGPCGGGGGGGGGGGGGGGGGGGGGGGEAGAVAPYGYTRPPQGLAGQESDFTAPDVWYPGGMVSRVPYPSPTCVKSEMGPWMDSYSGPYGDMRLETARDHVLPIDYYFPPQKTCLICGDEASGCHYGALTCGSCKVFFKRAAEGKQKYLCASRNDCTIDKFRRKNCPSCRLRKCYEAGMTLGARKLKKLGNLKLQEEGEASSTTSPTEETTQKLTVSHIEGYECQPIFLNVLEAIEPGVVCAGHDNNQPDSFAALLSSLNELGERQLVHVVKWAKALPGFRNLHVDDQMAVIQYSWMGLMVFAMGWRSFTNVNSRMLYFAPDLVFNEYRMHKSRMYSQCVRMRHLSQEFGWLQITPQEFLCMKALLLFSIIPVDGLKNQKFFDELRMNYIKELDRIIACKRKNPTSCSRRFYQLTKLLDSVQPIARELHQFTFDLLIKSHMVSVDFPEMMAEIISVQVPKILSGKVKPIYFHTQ
Method: 1. Transcription Activation Regulatory Action Toward Human Androgen Receptor
Acquisition of Human Androgen Receptor-Expressing, Stable Transformant of MMTV Reporter Gene, and Stable Transformant of SV40 Reporter Gene
CHO cells were seeded on a dish for cell culture having a diameter of 100 mm in an amount of 1×10^6 cells. After 12 to 18 hours, a human androgen receptor-expressing plasmid, MMTV-LTR luciferase reporter plasmid (also inclusive of neomycin resistant gene) co-precipitated with calcium phosphate was added thereto to effect transfection. […]
CHO/MMTV stable transformant cells and CHO/SV40 stable transformant cells were each seeded to a 96-well luminoplate for cell culture in an amount of 2×10^4 cells/well. […] Then, emitted light intensity was measured by means of a luminometer, the intensity being regarded as luciferase activity obtained by MMTV-LTR transcription activation due to human androgen receptor and nonspecific activation of SV40 promoter transcription.
The transcription activating action of the compound of the present invention was calculated according to the following equation as a ratio to the transcription activity induced by 1 nM DHT. […]

human androgen receptor [3] = molecular target: T1, human androgen receptor; test: Transcription activation inhibitory action toward human androgen receptor (antagonistic action), MMTV luciferase reporter in CHO cells; format: cell-based
Method: b) Evaluation of Transcription Activation Inhibitory Action Toward Human Androgen Receptor (Antagonistic Action)
CHO/MMTV stable transformant cells and CHO/SV40 stable transformant cells were each inoculated to a 96-well luminoplate for cell culture in an amount of 2×10^4 cells. After 6 to 8 hours, each of the compounds of the present invention was added together with DHT (final concentration of 0.3 nM). After about 18 hours from the addition of the compound, 20 μl of a solution containing 1% triton-X and 10% glycerin was added thereto to dissolve the cells and 100 μl of a luciferase substrate solution containing 0.47 mM luciferin was further added thereto. Then, emitted light intensity was measured using a luminometer, the intensity being regarded as luciferase activity obtained by MMTV-LTR transcription activation due to androgen receptor and nonspecific activation of SV40 promoter transcription.
The transcription activation inhibitory action of the compound of the present invention was calculated according to the following equation as an inhibitory ratio to the transcription activity induced by 0.3 nM DHT. Inhibitory ratio (%)=100(I′−X′)/(I′−B)
I′: (MMTV luciferase activity)/(SV40 luciferase activity) in the case that 0.3 nM DHT is only added
B: (MMTV luciferase activity)/(SV40 luciferase activity) without treatment
X′: (MMTV luciferase activity)/(SV40 luciferase activity) in the case that the compound of the present invention is added together with 0.3 nM DHT
IC50 was determined from the concentration of the compound of the present invention at which the inhibitory ratio calculated by the above method reached 50%.

| Structure (SMILES) | ED50 [1] [mg/kg] | pIC50 (human androgen receptor [3]) | also measured |
| --- | --- | --- | --- |
| COc1cc(N2C[C@@H](C)N(C(=O)Nc3ccc(C(F)(F)F)nc3)C[C@@H]2C)ccc1C#N (as salt: salt) [Example 3-15, (2R,5S)-4-(4-cyano-3-methoxyphenyl)-2,5-dimethyl-N-(6-trifluoromethyl-3-pyridyl)piperazine-1-carboxamide] |  |  | melting point: 211 to 212 °C |
| C[C@@H]1CN(c2ccc(C#N)c(Br)c2)[C@@H](C)CN1C(=O)Nc1ccc(C(F)(F)F)nc1 (as salt: salt) [Example 3-23, (2R,5S)-4-(3-bromo-4-cyanophenyl)-2,5-dimethyl-N-(6-trifluoromethyl-3-pyridyl)piperazine-1-carboxamide] |  |  | melting point: 216 to 218 °C |
| C[C@@H]1CN(c2ccc(C#N)c(Cl)c2)[C@@H](C)CN1C(=O)Nc1cnc(C2CC2)nc1 [Example 3-9, (2R,5S)-4-(3-chloro-4-cyanophenyl)-N-(2-cyclopropylpyrimidin-5-yl)-2,5-dimethylpiperazine-1-carboxamide] | 4.5 |  |  |
| C[C@@H]1CN(c2ccc(C#N)c(Cl)c2)[C@@H](C)CN1C(=O)Nc1ccc(C#N)nc1 [Example 3-12, (2R,5S)-4-(3-chloro-4-cyanophenyl)-N-(6-cyano-3-pyridyl)-2,5-dimethylpiperazine-1-carboxamide] | 1.7 | 7.40 | agonistic induction ratio (human androgen receptor [2]): ≤ 1% |
| COc1cc(N2C[C@@H](C)N(C(=O)Nc3ccc(C(F)(F)F)nc3)C[C@@H]2C)ccc1C#N [Example 3-15, (2R,5S)-4-(4-cyano-3-methoxyphenyl)-2,5-dimethyl-N-(6-trifluoromethyl-3-pyridyl)piperazine-1-carboxamide] | 4.1 |  | IC50 (human androgen receptor [3]; against 0.3 nM DHT, CHO/MMTV and CHO/SV40 stable transformants, read-out: Transcription activation inhibitory action (IC50 nM)): 130 nM |
| C[C@@H]1CN(c2ccc(C#N)c(Br)c2)[C@@H](C)CN1C(=O)Nc1ccc(C(F)(F)F)nc1 [Example 3-23, (2R,5S)-4-(3-bromo-4-cyanophenyl)-2,5-dimethyl-N-(6-trifluoromethyl-3-pyridyl)piperazine-1-carboxamide] | 1.1 | 7.28 |  |
| C[C@@H]1CN(c2ccc(C#N)c(C(F)(F)F)c2)[C@@H](C)CN1C(=O)Nc1cnc(C2CC2)nc1 [Example 3-30, (2R,5S)-4-(4-cyano-3-trifluoromethylphenyl)-N-(2-cyclopropylpyrimidin-5-yl)-2,5-dimethylpiperazine-1-carboxamide] | 3.9 | 7.17 |  |
